According to patent US6043217A, “Amide derivative of amythiamicin” (Zaidan Hojin Biseibutsu Kagaku Kenyu Kai, priority 1996, dated 2000):

How the values were obtained:
Format in all cases: cell-based
[1] = system: Escherichia coli K-12 ML 1692; assay: MIC, standard serial dilution method; details: Muller-Hinton agar medium, 37° C.
Description: (§1) The antibacterial activities of the amythiamicin amide derivative of the general formula (I) according to this invention are now concretely described. Compounds No. 1 to No. 11 according to this invention, which were respectively prepared in Examples 1 to 11 hereinafter given, were tested as the test compounds for their minimum inhibitory concentrations (MIC.) (μg/ml) against growth of a variety of test microorganisms by a standard serial dilution method. In the tests, the incubation medium used was Muller-Hinton agar medium and the incubation temperature was 37° C. The test results are shown as antibacterial spectra in the following Tables 2 and 3.

Shigella sonnei JS 11746 = assay: MIC, standard serial dilution method; details: Muller-Hinton agar medium, 37° C.
Description: as §1

[2] = system: Shigella clexnerl JS 11749; assay: MIC, standard serial dilution method; details: Muller-Hinton agar medium, 37° C.
Description: as §1

[3] = system: Providencia rettgeri GN 466; assay: MIC, standard serial dilution method; details: Muller-Hinton agar medium, 37° C.
Escherichia coli K-12 = assay: MIC, standard serial dilution method; details: Muller-Hinton agar medium, 37° C.
[4] = system: Staphylococcus aureus MS 16526; assay: MIC, standard serial dilution method; details: Muller-Hinton agar medium, 37° C.
[5] = system: Bacillus cereus ATCC 10702; assay: MIC, standard serial dilution method; details: Muller-Hinton agar medium, 37° C.
Escherichia coli BEM 11 = assay: MIC, standard serial dilution method; details: Muller-Hinton agar medium, 37° C.
Serratia marcescens = assay: MIC, standard serial dilution method; details: Muller-Hinton agar medium, 37° C.
[6] = system: Corynebacterium bovis 1810; assay: MIC, standard serial dilution method; details: Muller-Hinton agar medium, 37° C.
[7] = system: Pseudomonas aeruginosa A3; assay: MIC, standard serial dilution method; details: Muller-Hinton agar medium, 37° C.
Bacillus anthracis = details: Muller-Hinton agar medium, 37° C.
[8] = system: Bacillus subtilis NRRL B-558; assay: MIC, standard serial dilution method; details: Muller-Hinton agar medium, 37° C.
[9] = system: Staphylococcus aureus MS 9610; assay: MIC, standard serial dilution method; details: Muller-Hinton agar medium, 37° C.
[10] = system: Staphylococcus aureus No. 5 (MRSA); assay: MIC, standard serial dilution method; details: Muller-Hinton agar medium, 37° C.
Candida albicans 3147 = assay: MIC, standard serial dilution method; details: Muller-Hinton agar medium, 37° C.
[11] = system: Pseudomonas aeruginosa GN315; assay: MIC, standard serial dilution method; details: Muller-Hinton agar medium, 37° C.
[12] = system: Providencia rettgeri GN 311; assay: MIC, standard serial dilution method; details: Muller-Hinton agar medium, 37° C.
Proteus vulgaris OX 19 = assay: MIC, standard serial dilution method; details: Muller-Hinton agar medium, 37° C.
[13] = system: Staphylococcus aureus TY-0428; assay: MIC, standard serial dilution method; details: Muller-Hinton agar medium, 37° C.
[14] = system: Micrococcus luteus FDA 16; assay: MIC, standard serial dilution method; details: Muller-Hinton agar medium, 37° C.
[15] = system: Micrococcus luteus PIC 1001; assay: MIC, standard serial dilution method; details: Muller-Hinton agar medium, 37° C.
[16] = system: Staphylococcus aureus No. 17 (MRSA); assay: MIC, standard serial dilution method; details: Muller-Hinton agar medium, 37° C.
[17] = system: Salmonella enteritidis 1891; assay: MIC, standard serial dilution method; details: Muller-Hinton agar medium, 37° C.
[18] = system: Bacillus subtilis PCI 219; assay: MIC, standard serial dilution method; details: Muller-Hinton agar medium, 37° C.
Escherichia coli BE 1186 = assay: MIC, standard serial dilution method; details: Muller-Hinton agar medium, 37° C.
[19] = system: Mycobacterium smegmatis ATCC 607; assay: MIC, standard serial dilution method; details: Muller-Hinton agar medium, 37° C.
[20] = system: Staphylococcus aureus Smith; assay: MIC, standard serial dilution method; details: Muller-Hinton agar medium, 37° C.
[21] = system: Escherichia coli BEM 1121; assay: MIC, standard serial dilution method; details: Muller-Hinton agar medium, 37° C.
Salmonella typhi T-63 = assay: MIC, standard serial dilution method; details: Muller-Hinton agar medium, 37° C.
Escherichia coli NIHJ = assay: MIC, standard serial dilution method; details: Muller-Hinton agar medium, 37° C.
[22] = system: Shigella dysenteria JS 11910; assay: MIC, standard serial dilution method; details: Muller-Hinton agar medium, 37° C.
[23] = system: Proteus mirabilis IFM OM-9; assay: MIC, standard serial dilution method; details: Muller-Hinton agar medium, 37° C.
[24] = system: Klebsiella pneumonia PCI 602; assay: MIC, standard serial dilution method; details: Klebsiella pneumonia PCI 602 (Table 2); Muller-Hinton agar medium, 37° C.
[25] = system: Micrococcus luteus IFO 3333; assay: MIC, standard serial dilution method; details: Muller-Hinton agar medium, 37° C.
[26] = system: Staphylococcus aureus FDA 209P; assay: MIC, standard serial dilution method; details: Muller-Hinton agar medium, 37° C.

| Structure (SMILES) | Minimum growth inhibitory concentrations (MIC.) [1] [µg/mL] | Minimum growth inhibitory concentrations (MIC.) (Shigella sonnei JS 11746) [µg/mL] | Minimum growth inhibitory concentrations (MIC.) [2] [µg/mL] | Minimum growth inhibitory concentrations (MIC.) [3] [µg/mL] | Minimum growth inhibitory concentrations (MIC.) (Escherichia coli K-12) [µg/mL] | Minimum growth inhibitory concentrations (MIC.) [4] [µg/mL] | Minimum growth inhibitory concentrations (MIC.) [5] [µg/mL] | Minimum growth inhibitory concentrations (MIC.) (Escherichia coli BEM 11) [µg/mL] | Minimum growth inhibitory concentrations (MIC.) (Serratia marcescens) [µg/mL] | Minimum growth inhibitory concentrations (MIC.) [6] [µg/mL] | Minimum growth inhibitory concentrations (MIC.) [7] [µg/mL] | Minimum growth inhibitory concentrations (MIC.) (Bacillus anthracis) [µg/mL] | Minimum growth inhibitory concentrations (MIC.) [8] [µg/mL] | Minimum growth inhibitory concentrations (MIC.) [9] [µg/mL] | Minimum growth inhibitory concentrations (MIC.) [10] [µg/mL] | Minimum growth inhibitory concentrations (MIC.) (Candida albicans 3147) [µg/mL] | Minimum growth inhibitory concentrations (MIC.) [11] [µg/mL] | Minimum growth inhibitory concentrations (MIC.) [12] [µg/mL] | Minimum growth inhibitory concentrations (MIC.) (Proteus vulgaris OX 19) [µg/mL] | Minimum growth inhibitory concentrations (MIC.) [13] [µg/mL] | also measured |
| --- | --- | --- | --- | --- | --- | --- | --- | --- | --- | --- | --- | --- | --- | --- | --- | --- | --- | --- | --- | --- | --- |
| CCCCNCCCNCCCNC(=O)c1csc(-c2ccc3c(n2)-c2csc(n2)-c2csc(n2)C(C(C)C)NC(=O)CNC(=O)c2csc(n2)C(C(C)C)NC(=O)c2nc(sc2C)C(CC(=O)NC)NC(=O)c2csc-3n2)n1 (stereo not drawn) [Compound No. 6] | > 100 | > 100 | > 100 | > 100 | > 100 | > 100 | > 100 | > 100 | > 100 | > 100 | > 100 | 25 | 25 | > 100 | > 100 | > 100 | > 100 | > 100 | > 100 | > 100 | Minimum growth inhibitory concentrations (MIC.) [14]: > 100 µg/mL; Minimum growth inhibitory concentrations (MIC.) [15]: > 100 µg/mL; Minimum growth inhibitory concentrations (MIC.) [16]: > 100 µg/mL; Minimum growth inhibitory concentrations (MIC.) [17]: > 100 µg/mL; Minimum growth inhibitory concentrations (MIC.) [18]: > 100 µg/mL; Minimum growth inhibitory concentrations (MIC.) (Escherichia coli BE 1186): > 100 µg/mL; Minimum growth inhibitory concentrations (MIC.) [19]: > 100 µg/mL; Minimum growth inhibitory concentrations (MIC.) [20]: 25 µg/mL; Minimum growth inhibitory concentrations (MIC.) [21]: > 100 µg/mL; Minimum growth inhibitory concentrations (MIC.) (Salmonella typhi T-63): > 100 µg/mL; Minimum growth inhibitory concentrations (MIC.) (Escherichia coli NIHJ): > 100 µg/mL; Minimum growth inhibitory concentrations (MIC.) [22]: > 100 µg/mL; Minimum growth inhibitory concentrations (MIC.) [23]: > 100 µg/mL; Minimum growth inhibitory concentrations (MIC.) [24]: > 100 µg/mL; Minimum growth inhibitory concentrations (MIC.) [25]: > 100 µg/mL; Minimum growth inhibitory concentrations (MIC.) [26]: 50 µg/mL |
| CNC(=O)CC1NC(=O)c2csc(n2)-c2ccc(-c3nc(C(=O)NCCCN(C)CCCNCCc4ccc(Cl)cc4)cs3)nc2-c2csc(n2)-c2csc(n2)C(C(C)C)NC(=O)CNC(=O)c2csc(n2)C(C(C)C)NC(=O)c2nc1sc2C (stereo not drawn) [Compound No. 7] | > 100 | > 100 | > 100 | > 100 | > 100 | > 100 | > 100 | > 100 | > 100 | 25 | > 100 | > 100 | > 100 | > 100 | > 100 | > 100 | > 100 | > 100 | > 100 | > 100 | Minimum growth inhibitory concentrations (MIC.) [14]: 6.25 µg/mL; Minimum growth inhibitory concentrations (MIC.) [15]: 12.5 µg/mL; Minimum growth inhibitory concentrations (MIC.) [16]: > 100 µg/mL; Minimum growth inhibitory concentrations (MIC.) [17]: > 100 µg/mL; Minimum growth inhibitory concentrations (MIC.) [18]: 50 µg/mL; Minimum growth inhibitory concentrations (MIC.) (Escherichia coli BE 1186): > 100 µg/mL; Minimum growth inhibitory concentrations (MIC.) [19]: > 100 µg/mL; Minimum growth inhibitory concentrations (MIC.) [20]: > 100 µg/mL; Minimum growth inhibitory concentrations (MIC.) [21]: > 100 µg/mL; Minimum growth inhibitory concentrations (MIC.) (Salmonella typhi T-63): > 100 µg/mL; Minimum growth inhibitory concentrations (MIC.) (Escherichia coli NIHJ): > 100 µg/mL; Minimum growth inhibitory concentrations (MIC.) [22]: > 100 µg/mL; Minimum growth inhibitory concentrations (MIC.) [23]: > 100 µg/mL; Minimum growth inhibitory concentrations (MIC.) [24]: > 100 µg/mL; Minimum growth inhibitory concentrations (MIC.) [25]: 12.5 µg/mL; Minimum growth inhibitory concentrations (MIC.) [26]: > 100 µg/mL |
